Eight compounds from US20260176283A1, “IONIZABLE LIPIDS WITH LINEAR HEAD GROUPS” (Beam Therapeutics Inc., priority 2023, published 2026) can be followed below.

Data set [1] in a line: LNP preparation characterization (encapsulation efficiency, DLS size and polydispersity), barcoded screen LNPs. The format is physicochemical. The settings on record: LNP 47.5% ionizable lipid: 40% cholesterol: 2.5% PEG-2000 DMG: 10% DPSC, N/P 4.5-6; for AVG PDI / AVG Z Dia (nm): DLS. The method, then: Lipid nanoparticle components were dissolved in 100% ethanol at specified lipid component molar ratios. Nucleic acid (NA) cargo was dissolved in 10 mM citrate, 100 mM NaCl, pH 4.0, resulting in a concentration of NA cargo of approximately 0.22 mg/mL. In some embodiments, NA cargos included both a functional NA and a reporter barcode mixed at mass ratios of 1:10 to 10:1 functional NA to barcode. As described herein, a NA can be a siRNA, an anti-sense, an expressing DNA, or mRNA.
LNP preparations were prepared with 47.5% Ionizable Lipid (e.g., a compound provided herein): 40% cholesterol: 2.5% PEG-2000 DMG: 10% DPSC and an N/P ratio range of 4.5-6. LNP preparations were formed by microfluidic mixing of the lipid and NA solutions using Precision Nanosystems NanoAssemblr Spark or Benchtop series Instruments, according to the manufacturer's protocol.
A ratio of aqueous to organic solvent of approximately 2:1 or 3:1 was maintained during mixing using differential flow rates. After mixing, LNP preparations were collected, diluted in phosphate buffer saline (PBS) or Tris-buffered saline (TBS) (approximately 1:1 v/v). Further buffer exchange was conducted using dialysis in PBS or TBS at 4° C. for 4 to 24 hours against a 20 kDa filter. After this initial dialysis, each individual LNP preparation may be characterized via dynamic light scattering (DLS) to measure the size (e.g., diameter) and polydispersity. LNP preparations falling within specific diameter and polydispersity ranges were pooled, and further dialyzed against PBS or TBS at 4° C. for 1 to 4 hours against a 100 kDa dialysis cassette. After the second dialysis, LNP preparations were sterile filtered using 0.22 μm filter and stored at 4° C. for further use.

Data set [2] is described as follows: LNP characterization of base editor LNP preparations (DLS diameter, PDI, encapsulation efficiency). The format is physicochemical. The method, then:
(§1) Lipid nanoparticle components are dissolved in 100% ethanol at specified lipid component molar ratios. mRNA encoding an adenine base editor and a chemically-modified sgRNA is dissolved at a mass ratio of 1:1 in 10 mM citrate, 100 mM NaCl, pH 4.0, resulting in a concentration of NA cargo of approximately 0.22 mg/mL. LNP preparations are formulated with molar ratios of either 50% Ionizable Lipid: 38.5% Cholesterol: 1.5% PEG2000-DMG: 10% DSPC or 47.5% Ionizable Lipid: 40% Cholesterol: 2.5% PEG2000-DMG: 10% DSPC both at a total lipid to NA molar ratio of 6.
(§2) LNP preparations are formed by microfluidic mixing of the lipid and NA solutions using a Precision Nanosystems NanoAssemblr Ignite Instrument, according to the manufacturer's protocol. A 3:1 ratio of aqueous to organic solvent is maintained during mixing using differential flow rates. After mixing, LNP preparations are collected, diluted in PBS (approximately 2:1 v/v), and further buffer exchange is conducted using dialysis in PBS at 4° C. for 8 to 24 hours against a 20 kDa filter. After this initial dialysis, each individual LNP preparation is characterized via dynamic light scattering (DLS) to measure size and polydispersity. pKa of a subpopulation of LNP preparations is measured via TNS assay. After dialysis, LNP preparations are sterile filtered using 0.22 micron sterile filter and stored at 4° C. for further use. In some embodiments, LNP preparations may be concentrated using 100 kDa Amicon filters per manufacturer's protocol.
DLS—LNP preparation hydrodynamic diameter and polydispersity index (PDI) is measured using high throughput dynamic light scattering (DLS) (DynaPro plate reader II, Wyatt). LNP preparations are diluted 1×PBS to an appropriate concentration and analyzed.
Concentration of NA is determined by Qubit microRNA kit (for siRNA) or HS RNA kit (for mRNA) per manufacturer's instructions. Encapsulation efficiency is determined by measuring unlysed and lysed LNPs.

The subject of another data set is ALAS1 target site. Nature of the data set: In vivo base editing with ABE mRNA and sgRNA targeting ALAS1. Also on record: species or system Balb/c mice. Conditions: for Liver Editing A->G (%): formulation ratio 50:38.5:1.5:10, liver, 4 days after dosing. The method, then:
as §1, §2
Male Balb/C mice aged approximately 8-12 weeks are used in the experiments described herein. Each mouse is temporarily restrained, and LNP preparations are administered IV via tail vein injection. Age-matched mice are also used to administer vehicle (1×PBS) via tail vein injection as a control. Four to six days post-dose, tissues including liver, spleen, heart and muscle are collected (only liver and muscle (quardracept) are reported). Genomic DNA is isolated and fragmented and adapter-ligated using the Nextera DNA Flex Library Prep Kit (Illumina) using the 96-well plate Nextera indexing primers (Illumina), according to the manufacturer's instructions. Library size and concentration is confirmed by Fragment Analyzer (Agilent) and sent to Novogene for whole genome sequencing using an Illumina HiSeq.
For base editing, mRNA encoding an adenine base editor (ABE) and a guide RNA (sgRNA) targeting ALAS1 at 1:1 (mass ratio) are coencapsulated in LNP preparations as described herein. LNP preparations are administrated into Balb/c mice through tail vein injections at concentrations ranging from 0.05 to 3.0 mg/kg total RNA. At 4 days after dosing, mice are euthanized and liver, spleen and bone barrow are harvested. Base editing is determined by performing targeted deep sequencing analysis at the ALAS1 target site using extracted genomic DNA.

Setting [3] is: Table D LNPs, formulation ratio 50:38.5:1.5:10, ABE mRNA/ALAS1 sgRNA.
Where [4] appears, read: dose 3 MPK IV, formulation ratio 50:38.5:1.5:10, quadricep muscle.
The mark [5] stands for this setting: dose 1.5 MPK IV, formulation ratio 50:38.5:1.5:10, quadricep muscle.
The mark [6] stands for this setting: Table C LNPs, formulation ratio 47.5:40:2.5:10, ABE mRNA/ALAS1 sgRNA.

Where “and” joins values, the source holds several entries; their conditions need not be identical. Equal entries are not always repeated.

As to `O=C(CCCCCCC(=O)OC(CCCCCC(F)(F)F)CCCCCC(F)(F)F)OCC(COC(=O)CCCCCCC(=O)OC(CCCCCC(F)(F)F)CCCCCC(F)(F)F)COC(=O)CCCN1CCCC1` [Compound (16), 1-(1,1,1,13,13,13-Hexafluorotridecan-7-yl)-8-{2-[({8-[(1,1,1,13,13,13-hexafluorotridecan-7-yl)oxy]-8-oxooctanoyl}oxy)methyl]-3-{[4-(pyrrolidin-1-yl)butanoyl]oxy}propyl} octanedioate], in data set [1], the “AVG EE(%)” value came out at 64.3%, the “AVG PDI” value came to 0.09 and the “AVG Z Dia (nm)” value was 129.85 nm. For the same compound, in data set [2] (setting [3]), the “Diameter (nm)” value came out at 96.8 nm, the “EE (%)” value was found to be 96.3% and the “PDI (%)” value turned out to be 13.5%. In the data set with ALAS1 target site (dose 3 MPK IV), the “Liver Editing A->G (%)” value is listed as 72.41%. For the same compound, the “Quadrecept Editing A->G (%)” value in the data set on ALAS1 target site (setting [4]) was 0.6%.

As for `C=CCCCCC(CCCCC=C)OC(=O)CCCCCC(=O)OCC(COC(=O)CCCCCC(=O)OC(CCCCC=C)CCCCC=C)COC(=O)CCCN1CCCC1` [Compound (2)], in data set [1], the “AVG EE(%)” value worked out at 83.5%, the “AVG PDI” value is on record as 0.06 and the “AVG Z Dia (nm)” value is reported as 108.73 nm. In data set [2] (setting [3]), the “Diameter (nm)” value is on record as 98.8 nm, the “EE (%)” value was 98.59% and the “PDI (%)” value came out at 9.5%. Moreover, the “Liver Editing A->G (%)” value in the data set on ALAS1 target site (dose 1.5 MPK IV) is given as 79.48%. For the same compound, the “Quadrecept Editing A->G (%)” value in the data set on ALAS1 target site (setting [5]) worked out at 3.19%.

As for `CCC/C=C\CCC(CC/C=C\CCC)OC(=O)CCCCCC(=O)OCC(COC(=O)CCCCCC(=O)OC(CC/C=C\CCC)CC/C=C\CCC)COC(=O)CCCN1CCCC1` [Compound (23), 1-{2-[({7-Oxo-7-[(4Z,11Z)-pentadeca-4,11-dien-8-yloxy]heptanoyl}oxy)methyl]-3-{[4-(pyrrolidin-1-yl)butanoyl]oxy}propyl} 7-(4Z,11Z)-pentadeca-4,11-dien-8-ylheptanedioate], in data set [1], the “AVG EE(%)” value was found to be 85.8%, the “AVG PDI” value is on record as 0.12 and the “AVG Z Dia (nm)” value was 78.47 nm. In data set [2] (setting [3]), the “Diameter (nm)” value came out at 72.6 nm, the “EE (%)” value turned out to be 98.18% and the “PDI (%)” value was found to be 11.4%. Further, in the data set with ALAS1 target site (dose 1.5 MPK IV), the “Liver Editing A->G (%)” value stood at 80.09%. Moreover, the “Quadrecept Editing A->G (%)” value in the data set on ALAS1 target site (setting [5]) was 4.81%.

Consider `C=CCCCCCCC(CCCCCCC=C)OC(=O)CCCCC(=O)OCC(COC(=O)CCCCC(=O)OC(CCCCCCC=C)CCCCCCC=C)COC(=O)CCCN1CCCC1` [Compound (3), 1-Heptadeca-1,16-dien-9-yl6-[2-({[6-(hentadeca-1,16-dien-9-yloxy)-6-oxohexanoyl]oxy}methyl)-3-{[4-(pyrrolidin-1-yl)butanoyl]oxy}propyl]hexanedioate], for which, in data set [1], the “AVG EE(%)” value came out at 85.3%, the “AVG PDI” value amounted to 0.13 and the “AVG Z Dia (nm)” value is on record as 77.22 nm. Further, in data set [2] (setting [3]), the “Diameter (nm)” value worked out at 69.8 nm, the “EE (%)” value came out at 99.3% and the “PDI (%)” value is 11.9%. Further, the “Liver Editing A->G (%)” value in the data set with ALAS1 target site (dose 3 MPK IV) is 69.43%. Moreover, the “Quadrecept Editing A->G (%)” value with ALAS1 target site (setting [4]) is on record as 3.8%.

On to `C=CCCCCC(CCCCC=C)OC(=O)CCCCCCC(=O)OCC(COC(=O)CCCCCCC(=O)OC(CCCCC=C)CCCCC=C)COC(=O)CCCN1CCCC1` [Compound (6), 1-[2-({[8-Oxo-8-(trideca-1,12-dien-7-yloxy)octanoyl]oxy}methyl)-3-{[4-(pyrrolidin-1-yl)butanoyl]oxy}propyl]-8-trideca-1,12-dien-7-yl octanedioate], for which, in data set [1], the “AVG EE(%)” value is 78.0%, the “AVG PDI” value is listed as 0.10 and the “AVG Z Dia (nm)” value came out at 97.43 nm. Besides, in data set [2] (setting [3]), the “Diameter (nm)” value is listed as 73.7 nm, the “EE (%)” value was determined as 98.07% and the “PDI (%)” value stood at 15.3%. Further, the “Liver Editing A->G (%)” value with ALAS1 target site (dose 3 MPK IV) is on record as 78.46%. In addition, in the data set on ALAS1 target site (setting [4]), the “Quadrecept Editing A->G (%)” value is recorded as 1.17%.

Consider `C=CCCCCCC(CCCCCC=C)OC(=O)CCCCCC(=O)OCC(COC(=O)CCCCCC(=O)OC(CCCCCC=C)CCCCCC=C)COC(=O)NCCN1CCCC1` [Compound (26), O1-[2-[[7-(1-hept-6-enyloct-7-enoxy)-7-oxo-heptanoyl]oxymethyl]-3-(2-pyrrolidin-1-ylethylcarbamoyloxy)propyl] O7-(1-hept-6-enyloct-7-enyl) heptanedioate], for which, in data set [1], the “AVG EE(%)” value is recorded as 93.4%, the “AVG PDI” value is given as 0.08 and the “AVG Z Dia (nm)” value was determined as 82.14 nm. In addition, in data set [2] (setting [6]), the “Diameter (nm)” value is 75.47 nm and 81.14 nm; the “EE (%)” value is 99.1% and 99%; the “PDI (%)” value was 1.2% and 9.4%. For the same compound, in data set [2] (setting [3]), the “Diameter (nm)” value came to 79.5 nm, the “EE (%)” value is listed as 98.3% and the “PDI (%)” value is recorded as 22.3%. Moreover, in the data set on ALAS1 target site (dose 0.05 MPK IV), the “Liver Editing A->G (%)” value is given as 0.41%. In the data set on ALAS1 target site (dose 3 MPK IV, formulation ratio 47.5:40:2.5:10, quadricep muscle), the “Quadrecept Editing A->G (%)” value came out at 7.26%.

As for `C=CCCCCCC(CCCCCC=C)OC(=O)CCCCCC(=O)OCC(COC(=O)CCCCCC(=O)OC(CCCCCC=C)CCCCCC=C)COC(=O)CCCN1CCCC1` [Compound (9), 1-[2-({[7-Oxo-7-(pentadeca-1,14-dien-8-yloxy)heptanoyl]oxy}methyl)-3-{[4-(pyrrolidin-1-yl)butanoyl]oxy}propyl] 7-pentadeca-1,14-dien-8-yl heptanedioate], in data set [2] (setting [3]), the “Diameter (nm)” value was 74.1 nm and 75.6 nm and 89.9 nm and 85.5 nm; the “EE (%)” value is 98.77% and 98.4% and 98.5% and 98.1%; the “PDI (%)” value is 12.2% and 9.7% and 8.1% and 9.8%. Besides, the “Liver Editing A->G (%)” value with ALAS1 target site (dose 1.5 MPK IV) was found to be 90.8%. Besides, in the data set on ALAS1 target site (setting [5]), the “Quadrecept Editing A->G (%)” value is given as 8.22%.

Take `C=CCCCCCC(CCCCCC=C)OC(=O)CCCCCCC(=O)OCC(COC(=O)CCCCCCC(=O)OC(CCCCCC=C)CCCCCC=C)COC(=O)CCCN1CCCC1` [Compound (10), 1-[2-({[8-Oxo-8-(pentadeca-1,14-dien-8-yloxy)octanoyl]oxy}methyl)-3-{[4-(pyrrolidin-1-yl)butanoyl]oxy}propyl] 8-pentadeca-1,14-dien-8-yl octanedioate]: in data set [2] (setting [3]), the “Diameter (nm)” value was determined as 71.6 nm, the “EE (%)” value is given as 98.66% and the “PDI (%)” value is given as 11%. Also, the “Liver Editing A->G (%)” value in the data set on ALAS1 target site (dose 3 MPK IV) stood at 75.62%. Further, the “Quadrecept Editing A->G (%)” value in the data set with ALAS1 target site (setting [4]) was found to be 3.6%.
